Holding throughout (test): ≥ marks a high value that may be exact or a test limit, other limits are often not marked, values filed in µg/mL are converted to µM
Assay [1] deals with Candida albicans CGMCC 2.2086.
The subject of assay [2] is Candida parapsilosis CGMCC 2.3989.
In assay [3] the test system is Candida tropicalis CGMCC 2.1975.
The subject of assay [4] is Escherichia coli 078.
Assay [5] concerns Escherichia coli K88.
For assay [6], the system named is Escherichia coli K99.
Assay [7] concerns Escherichia coli UB1005.
For assay [8], the system named is Pseudomonas aeruginosa ATCC 27853.
In assay [9] the test system is Salmonella enterica subsp. enterica serovar Pullorum ATCC 7913.
The test system of assay [10] is Salmonella enterica subsp. enterica serovar Typhimurium ATCC 14028.
For assay [11], the system named is Salmonella enterica subsp. enterica serovar Typhimurium C77-31.
Assay [12] relates to Staphylococcus aureus ATCC 25923.
The test system of assay [13] is Staphylococcus aureus ATCC 43300.
Assay [14] relates to Staphylococcus epidermidis ATCC 12228.
Assay [15] concerns Acinetobacter baumannii 97830.
In assay [16] the test system is Acinetobacter baumannii 9931.
Assay [17] deals with Acinetobacter baumannii ATCC 19606.
In assay [18] the test system is Bacillus subtilis ATCC 23857.
For assay [19], the system named is Escherichia coli 780.
In assay [20] the test system is Escherichia coli 804.
Assay [21] relates to Klebsiella pneumoniae ATCC 700603.
Assay [22] relates to Pseudomonas aeruginosa 50.
The subject of assay [23] is Pseudomonas aeruginosa 73.
The test system of assay [24] is Pseudomonas aeruginosa ATCC 9027.
Assay [25] relates to Staphylococcus aureus 113.
Assay [26] relates to Staphylococcus aureus 75.
Assay [27] concerns Staphylococcus aureus ATCC 29213.
Assay [28] relates to Candida albicans ATCC 10231.
Assay [29] relates to Cryptococcus neoformans ATCC 32045.
Assay [30] has as its system Escherichia coli ATCC 2592.
For assay [31], the system named is Pseudomonas aeruginosa ATCC 10145.
The subject of assay [32] is Staphylococcus aureus ATCC 33591.

Molecules are shown by their SMILES. In brackets after ≈: the same amount, converted by molar mass.

One may read the MIC as the lowest concentration found to suppress growth. Low readings indicate inhibition by little substance, high ones a need for much substance. `CC[C@H](C)[C@H](NC(=O)[C@H](CCCN=C(N)N)NC(=O)[C@H](C)NC(=O)[C@H](C)N)C(=O)N[C@H](C(=O)N[C@@H](CC(C)C)C(=O)N[C@@H](CCCN=C(N)N)C(=O)N[C@@H](CCCN=C(N)N)C(=O)N[C@@H](CCCN=C(N)N)C(=O)N[C@@H](Cc1ccccc1)C(=O)N[C@@H](CCCN=C(N)N)C(N)=O)[C@@H](C)CC` [AARIILRRRFR]: the MIC in assay [1] is no less than 128 µM; in [2], no less than 64 µM; in assay [3], no less than 64 µM; in assay [4], 16 µM (≈ 22.8 µg/mL); in assay [5] it was 16 µM (≈ 22.8 µg/mL); in assay [6], 8 µM (≈ 11.4 µg/mL). The MIC in [7] was 16 µM (≈ 22.8 µg/mL); in assay [8], greater than 128 µM; in assay [9], 16 µM (≈ 22.8 µg/mL); in assay [10], 32 µM (≈ 45.7 µg/mL); in [11], 8 µM (≈ 11.4 µg/mL); in assay [12], 32 µM (≈ 45.7 µg/mL). The MIC in assay [13] and in assay [14] was 16 µM (≈ 22.8 µg/mL) each time.
With `CC[C@H](C)[C@H](N)C(=O)N[C@@H](Cc1c[nH]c2ccccc12)C(=O)N[C@@H](CCCN=C(N)N)C(=O)N[C@@H](Cc1c[nH]c2ccccc12)C(=O)N[C@@H](Cc1c[nH]c2ccccc12)C(=O)N[C@@H](Cc1c[nH]c2ccccc12)C(=O)N[C@@H](CCCN=C(N)N)C(=O)N[C@@H](Cc1c[nH]c2ccccc12)C(=O)N[C@H](C(N)=O)[C@@H](C)CC` [IWRWWWRWI], the MIC in [15] was 8 µM (≈ 11.9 µg/mL); in assay [16], 8 µM (≈ 11.9 µg/mL); in assay [17], 32 µM (≈ 47.6 µg/mL); in assay [18], 4 µM (≈ 5.95 µg/mL); in assay [19] it was 16 µM (≈ 23.8 µg/mL); in assay [20], 8 µM (≈ 11.9 µg/mL). The MIC is 8 µM (≈ 11.9 µg/mL) in assay [21]; 16 µM (≈ 23.8 µg/mL) in assay [22]; no less than 32 µM in [23]; 32 µM (≈ 47.6 µg/mL) in [8]; 32 µM (≈ 47.6 µg/mL) in assay [24]; 4 µM (≈ 5.95 µg/mL) in [25]. The MIC in assay [26] came to 8 µM (≈ 11.9 µg/mL); in [27], 4 µM (≈ 5.95 µg/mL); in assay [14], 4 µM (≈ 5.95 µg/mL).
With `C[C@H](NC(=O)[C@H](Cc1ccccc1)NC(=O)[C@H](CCCCN)NC(=O)[C@H](CCCCN)NC(=O)[C@H](C)NC(=O)[C@H](Cc1ccccc1)NC(=O)[C@H](CCCCN)NC(=O)[C@H](CCCCN)NC(=O)[C@H](C)NC(=O)[C@H](Cc1ccccc1)NC(=O)[C@H](CCCCN)NC(=O)[C@H](CCCCN)NC(=O)[C@H](C)NC(=O)[C@H](Cc1ccccc1)NC(=O)[C@H](CCCCN)NC(=O)[C@H](CCCCN)NC(=O)[C@H](C)NC(=O)[C@H](Cc1ccccc1)NC(=O)[C@@H](N)CCCCN)C(=O)N[C@@H](CCCCN)C(=O)O` [KFAKKFAKKFAKKFAKKFAK], the MIC in assay [28] was 44.4 µM (≈ 106 µg/mL); in [29], 4.73 µM (≈ 11.3 µg/mL); in assay [30] it was 9.46 µM (≈ 22.6 µg/mL); in [31] it was 3.35 µM (≈ 8 µg/mL); in assay [32], no less than 105 µM.
Taken in the same sequence, the figures for `NCCCC[C@H](NC(=O)[C@H](Cc1ccccc1)NC(=O)[C@H](CCCCN)NC(=O)[C@H](CCCCN)NC(=O)[C@H](Cc1ccccc1)NC(=O)[C@H](CCCCN)NC(=O)[C@H](CCCCN)NC(=O)[C@H](Cc1ccccc1)NC(=O)[C@H](CCCCN)NC(=O)[C@H](CCCCN)NC(=O)[C@H](Cc1ccccc1)NC(=O)[C@H](CCCCN)NC(=O)[C@H](CCCCN)NC(=O)[C@H](Cc1ccccc1)NC(=O)[C@H](CCCCN)NC(=O)[C@H](CCCCN)NC(=O)[C@H](Cc1ccccc1)NC(=O)[C@H](CCCCN)NC(=O)[C@H](CCCCN)NC(=O)[C@H](Cc1ccccc1)NC(=O)[C@H](CCCCN)NC(=O)[C@H](CCCCN)NC(=O)[C@H](Cc1ccccc1)NC(=O)[C@H](CCCCN)NC(=O)[C@H](CCCCN)NC(=O)[C@H](Cc1ccccc1)NC(=O)[C@@H](N)CCCCN)C(=O)O` [KFKKFKKFKKFKKFKKFKKFKKFKKFK] were 96.9 µM (≈ 354 µg/mL), 24.1 µM (≈ 88 µg/mL), 6.2 µM (≈ 22.6 µg/mL), no less than 34.2 µM and no less than 48.4 µM.
For `CC(C)C[C@H](NC(=O)[C@H](CCCCN)NC(=O)[C@H](CCCCN)NC(=O)[C@H](CC(C)C)NC(=O)[C@H](CC(C)C)NC(=O)[C@H](CCCCN)NC(=O)[C@H](CCCCN)NC(=O)[C@H](CC(C)C)NC(=O)[C@H](CC(C)C)NC(=O)[C@H](CCCCN)NC(=O)[C@H](CCCCN)NC(=O)[C@H](CC(C)C)NC(=O)[C@H](CC(C)C)NC(=O)[C@H](CCCCN)NC(=O)[C@H](CCCCN)NC(=O)[C@H](CC(C)C)NC(=O)[C@H](CC(C)C)NC(=O)[C@H](CCCCN)NC(=O)[C@H](CCCCN)NC(=O)[C@@H](N)CC(C)C)C(=O)O` [LKKLLKKLLKKLLKKLLKKL], in that order: greater than 206 µM, no less than 36.2 µM, no less than 36.2 µM, 25.5 µM (≈ 62 µg/mL) and no less than 103 µM.
On to `CC(C)[C@H](N)C(=O)N[C@@H](CCCN=C(N)N)C(=O)N[C@@H](CCCN=C(N)N)C(=O)N[C@@H](Cc1c[nH]c2ccccc12)C(=O)N[C@@H](Cc1c[nH]c2ccccc12)C(=O)N[C@@H](Cc1c[nH]c2ccccc12)C(=O)N[C@@H](CCCN=C(N)N)C(=O)N[C@@H](CCCN=C(N)N)C(=O)N[C@H](C(N)=O)C(C)C` [VRRWWWRRV], for which the MIC in [15] was no less than 64 µM; in assay [16], no less than 32 µM; in assay [17] it was 128 µM (≈ 179 µg/mL); in assay [18], 4 µM (≈ 5.59 µg/mL); in [19] it was no less than 64 µM; in assay [20], no less than 64 µM. Moreover, the MIC is 64 µM (≈ 89.5 µg/mL) in assay [21]; no less than 128 µM in [22]; no less than 128 µM in assay [23]; 32 µM (≈ 44.8 µg/mL) in assay [8]; 32 µM (≈ 44.8 µg/mL) in assay [24]; 16 µM (≈ 22.4 µg/mL) in assay [25]. In addition, the results for the MIC in assay [26], in assay [27] and in assay [14] were 8 µM (≈ 11.2 µg/mL), 8 µM (≈ 11.2 µg/mL) and 4 µM (≈ 5.59 µg/mL), respectively.
As to `CC(C)[C@H](N)C(=O)N[C@@H](Cc1c[nH]c2ccccc12)C(=O)N[C@@H](CCCN=C(N)N)C(=O)N[C@@H](Cc1c[nH]c2ccccc12)C(=O)N[C@@H](Cc1c[nH]c2ccccc12)C(=O)N[C@@H](Cc1c[nH]c2ccccc12)C(=O)N[C@@H](CCCN=C(N)N)C(=O)N[C@@H](Cc1c[nH]c2ccccc12)C(=O)N[C@H](C(N)=O)C(C)C` [VWRWWWRWV], the MIC in assay [15] was found to be 4 µM (≈ 5.83 µg/mL); in assay [16], 8 µM (≈ 11.7 µg/mL); in assay [17] it was 16 µM (≈ 23.3 µg/mL); in [18] it was 4 µM (≈ 5.83 µg/mL); in assay [19] it was 4 µM (≈ 5.83 µg/mL); in assay [20] it was 16 µM (≈ 23.3 µg/mL). Moreover, the MIC in assay [21] was 8 µM (≈ 11.7 µg/mL); in assay [22], no less than 32 µM; in assay [23] it was no less than 32 µM; in [8], 32 µM (≈ 46.7 µg/mL); in [24], 32 µM (≈ 46.7 µg/mL); in assay [25] it was 4 µM (≈ 5.83 µg/mL). Besides, the MIC in [26], in assay [27] and in assay [14] was 4 µM (≈ 5.83 µg/mL) each time.

For the origin of these results see DBAASP.
